The source of these data is US6734212B2, “Methods and compositions for treating or preventing bacterial infection” (Shanghai East Best Biopharmaceutical, priority 2001, dated 2004).

Where two headings read alike, the source gives them in different places. Bounds are passed on as bounds.

In data set [1] the test system is E. coli. In words: Effects of GMCHA derivatives on E. coli growth. The note with it: for IC50: Escherichia coli; for E. coli IC91 / E. coli IC100: growth, Table 2. It is filed as cell-based.
Data set [2] addresses T1, E. coli Proteinase In (Escherichia coli, UniProt P27298).
T1 construct: We detected a single activity and had purified it to homogeneity; made in house; host or cells: endogenous enzyme purified from E. coli extracts (not recombinant)
In words: Inhibition of purified E. coli proteinase In (fluorogenic substrate Boc-Val-Pro-Arg-NH-Mec). The class given is biochemical. From the text: Since the GMCHA derivatives were originally identified as synthetic trypsin inhibitors in vitro, we investigated whether a trypsin-like protease could be detected in E. coli extracts using as fluorogenic substrate Boc-Val-Pro-Arg-NH-Mec. (Kato et al., Eur. J. Biochem., 210:1007-1014 (1992)). We detected a single activity and had purified it to homogeneity. […] The purified enzyme has a molecular mass of ˜66 kDa and an isoelectric point of 4.9. Based upon pH optimum, hydrolytic activity on various synthetic substrates, and effects of various known proteolytic inhibitors, this E. coli protease has very different specificity than mammalian trypsin or any of known bacterial enzymes. Most exciting is the finding that the sensitivity of the purified enzyme to various GMCHA derivatives paralleled exactly their inhibitory effects on E. coli (Table 1). […] (Kato et al., Biol.Pharm. Bull., 16:552-557 (1993)). […]. […] We named this enzyme proteinase In, and its gene was identical with prlC. The prlC gene encoded a 67 kDa protein with two active sites for proteinase In and oligopeptidase A. (Jiang et al., J. Biochem., 124:980-985 (1998)). […] (Irisawa et al., Biol. Pharm. Bull., 16:1211-1215 (1993)).

The test system of data set [3] is H. pylori. As to the kind of experiment: MIC against 9 strains of H. pylori. It is filed as cell-based. The note with it: 9 ATCC strains of H. pylori. The protocol: MICs (μg/ml) of several substances against 9 strains (ATCC43504, ATCC43629, ATCC43526,ATCC43579,ATCC49503,ATCC51110,ATCC51652,ATCC51653, ATCC51932) of H. pylori were examined. NE-2001 had minimal inhibitory concentrations (MICs) ranging from 0.10 to 0.48 μg/ml.

For data set [4], the system named is B. subtilis. As to the kind of experiment: Effects of aromatic esters of GMCHA on growth of B. subtilis. It is filed as cell-based. The note with it: for IC50: Bacillus subtilis.
The test system of data set [5] is S. aureus. As to the kind of experiment: Effects of aromatic esters of GMCHA on growth of S. aureus. It is filed as cell-based. The note with it: for IC20: Staphylococcus aureus, read-out: S. aureus IC20; for S. aureus IC100: growth.
Data set [6] concerns S. epidermidis. In words: Effects of aromatic esters of GMCHA on growth of S. epidermidis. The class given is cell-based.
Data set [7] deals with synchronized E. coli cells. The class given is cell-based.
The test system of data set [8] is H. pylori. In words: Bactericidal effect against H. pylori (time course, various concentrations and pH). The note with it: concentration ≧1.25 μg/ml. The class given is cell-based. The protocol: FIG. 2 illustrates the anti-H. pylori effects of the compound NE-2001. Bactericidal effect was examined at various concentration (0.15-2.50 μg/ml) for 168 hours. […] No visible organism was detected in 3 hr at a concentration of ≧1.25 μg/ml.

The test system of data set [9] is H. pylori ATCC43504. In words: Appearance frequency of natural resistant mutation. It is filed as cell-based. From the text:
FIG. 3. Illustrates the anti-H. pylori effects of the compound NE-2001 at various pH values. The appearance frequency of natural resistant mutations against NE-2001 was examined (Table 4).

Data set [10] in a line: Single dose toxicity in mice. It is filed as in vivo.
Setting [11] is: read-out: E. coli Proteinase In IC50.

T1 sequence (P27298 whole entry): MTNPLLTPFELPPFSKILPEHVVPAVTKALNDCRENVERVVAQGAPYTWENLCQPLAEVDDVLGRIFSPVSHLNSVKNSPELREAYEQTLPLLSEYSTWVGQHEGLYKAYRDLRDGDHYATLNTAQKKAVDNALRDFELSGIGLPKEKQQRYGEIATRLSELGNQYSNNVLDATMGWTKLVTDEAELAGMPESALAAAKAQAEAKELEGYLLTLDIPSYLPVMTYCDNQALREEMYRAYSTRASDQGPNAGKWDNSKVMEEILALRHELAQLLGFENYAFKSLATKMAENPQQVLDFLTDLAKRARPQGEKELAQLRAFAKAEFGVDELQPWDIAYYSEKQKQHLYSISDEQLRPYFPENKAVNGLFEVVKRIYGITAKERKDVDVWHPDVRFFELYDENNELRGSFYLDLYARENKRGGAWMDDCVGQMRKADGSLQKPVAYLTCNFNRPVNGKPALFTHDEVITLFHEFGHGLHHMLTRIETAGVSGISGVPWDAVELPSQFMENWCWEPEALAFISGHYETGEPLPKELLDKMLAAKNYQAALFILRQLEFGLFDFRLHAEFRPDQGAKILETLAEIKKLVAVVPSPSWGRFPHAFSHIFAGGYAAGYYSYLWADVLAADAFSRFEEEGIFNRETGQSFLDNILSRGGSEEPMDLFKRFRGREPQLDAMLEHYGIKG

One may read the IC50 as the concentration that inhibits the measured activity by half. Turning to `N=C(N)NCC1CCC(C(=O)Oc2c(Cl)cc(Cl)cc2Cl)CC1` (centres unmarked) [PH06], the IC50 in [1] stood at 44 µM; in data set [2], 35 µM.
As for `Cc1ncc([N+](=O)[O-])n1CCO` [Metronidazole], the “MIC Range” value in [3] fell in the range of 0.65 to 2.45 µg/mL.
The term IC20 denotes the point of the concentration-response curve where the effect stands at 20%. `Cc1ccc(OC(=O)C2CCC(CNC(=N)N)CC2)cc1` (centres unmarked) [PH02]: in data set [1], the IC50 is more than 200 µM, the “E. coli IC91” value is more than 200 and the E. coli IC100 is more than 200 µM. Also, in data set [2] (setting [11]), the half-maximal inhibitory concentration (IC50) is more than 200 µM. In [4], the B. subtilis IC100 is more than 200 µM and the IC50 was more than 200 µM. For the same compound, in data set [5], the IC20 amounted to 47 µM and the S. aureus IC100 came out at 120 µM. In addition, in data set [6], the “S. epidermidis IC91” value is 48 and the S. epidermidis IC100 is 120 µM.
Regarding `CC(C)(C)c1ccc(OC(=O)C2CCC(CNC(=N)N)CC2)cc1` (centres unmarked) [PH04], in [1], the IC50 came out at 45 µM, the “E. coli IC91” value turned out to be 45 and the E. coli IC100 came to 90 µM. This compound came in with an IC50 in [2] of 38 µM. In [4], this compound yielded a B. subtilis IC100 of 50 µM and an IC50 of 26 µM. Further, in data set [5], the IC20 was found to be 3.4 µM and the S. aureus IC100 was found to be 15 µM. For the same compound, in data set [6], the “S. epidermidis IC91” value turned out to be 2.9 and the S. epidermidis IC100 came to 10 µM. In addition, in [7], the “duration of R1 period” value is 35 min, the “time at which DNA synthetic activity doubled” value is 65 min and the “time of initiation of DNA synthesis” value came out at 30 min.
For the compound `N=C(N)NCC1CCC(C(=O)Oc2ccccc2-c2ccccc2)CC1` (centres unmarked) [BP02], the IC50 in data set [1] is 74 µM; in data set [2] it was 83 µM.
With `CC1(C)S[C@@H]2[C@H](NC(=O)[C@H](N)c3ccc(O)cc3)C(=O)N2[C@H]1C(=O)O` [Amoxicillin], the “MIC Range” value in data set [3] was in the range of 0.01 to 0.08 µg/mL.
For the compound `N=C(N)NCC1CCC(C(=O)Oc2ccccc2)CC1` (centres unmarked) [PH01], in [1], the IC50 was more than 200 µM, the “E. coli IC91” value is reported as more than 200 and the E. coli IC100 was more than 200 µM. Besides, the half-inhibitory concentration (IC50) in data set [2] (setting [11]) was more than 200 µM. For the same compound, in data set [4], the B. subtilis IC100 was more than 200 µM and the IC50 is more than 200 µM. Further, in data set [5], the IC20 was found to be 151 µM and the S. aureus IC100 was more than 200 µM. In [6], the “S. epidermidis IC91” value was determined as 128 and the S. epidermidis IC100 was more than 200 µM.
Regarding `N=C(N)NCC1CCC(C(=O)Oc2ccc(Cl)cc2Cl)CC1` (centres unmarked) [PH05], the 50% inhibitory concentration (IC50) worked out at 92 µM in [1] and 62 µM in [2].
For `CC[C@H]1OC(=O)[C@H](C)[C@@H](O[C@H]2C[C@@](C)(OC)[C@@H](O)[C@H](C)O2)[C@H](C)[C@@H](O[C@@H]2O[C@H](C)C[C@H](N(C)C)[C@H]2O)[C@](C)(OC)C[C@@H](C)C(=O)[C@H](C)[C@@H](O)[C@]1(C)O` [Clarithromycin], the “MIC Range” value in data set [3] was in the range of 0.01 to 0.90 µg/mL.
As for `N=C(N)NCC1CCC(C(=O)Oc2ccc(-c3ccccc3)cc2)CC1` (centres unmarked) [BP01], in [1], the IC50 was determined as 26 µM, the “E. coli IC91” value was 26 and the E. coli IC100 turned out to be 40 µM. In [2], this compound had an IC50 of 17 µM. Also, in data set [4], the B. subtilis IC100 was found to be 10 µM and half-maximal inhibition (IC50) was put at 4 µM. In data set [5], the IC20 stood at 0.6 µM and the S. aureus IC100 is 2 µM. Further, in data set [6], the “S. epidermidis IC91” value came to 0.4 and the S. epidermidis IC100 stood at 1.5 µM.
Consider `CCc1ccc(OC(=O)C2CCC(CNC(=N)N)CC2)cc1` (centres unmarked) [PH03], for which, in data set [1], it took 167 µM to reach half-maximal inhibition (IC50), the “E. coli IC91” value was 167 and the E. coli IC100 was more than 200 µM. Moreover, the half-maximal inhibitory concentration (IC50) in [2] (setting [11]) is more than 200 µM. In data set [4], this compound displayed a B. subtilis IC100 of more than 200 µM and an IC50 of 129 µM. In addition, in data set [5], the IC20 was found to be 15 µM and the S. aureus IC100 stood at 50 µM. In data set [6], the “S. epidermidis IC91” value worked out at 14 and the S. epidermidis IC100 was determined as 50 µM.
As usually defined, the LD50 is the dose at which mortality reaches 50%. High values mean a less toxic substance, low ones a more toxic substance. `Cc1ccc(COC(=O)c2ccc(-c3ccc(OC(=O)c4ccc(CNC(=N)N)cc4)cc3)cc2)cc1` [NE-2001, 4-(4-methylbenzyl)-4′-[guanidinomethylbenzoyloxy] biphenyl-4-carboxylate]: the “MIC Range” value in data set [3] was in the range of 0.10 to 0.48 µg/mL. The “time at which no visible organism was detected” value in data set [8] was 3 h. For the same compound, the “Frequency of natural resistant mutation” value in data set [9] (selected concentration of NE-2001 0.30 μg/ml), in data set [9] (selected concentration of NE-2001 0.60 μg/ml) and in [9] (selected concentration of NE-2001 1.20 μg/ml) was <3.4 × 10^−8 each time. Also, the 50% lethal dose (LD50) in data set [10] (mouse, in vivo, 2000 mg/kg, oral, single dose, male mice, 6 weeks) is more than 2000 mg/kg. Besides, the animal deaths result in data set [10] (mouse, in vivo, po, 2000 mg/kg) is given as “no animal deaths occurred”. In addition, in [10] (mouse, in vivo, po, 2000 mg/kg), the body weight entry is on record as “all animals gained weight”. The general toxicity result in data set [10] (oral 2000 mg/kg, male mice) is on record as “observed in neither cases”.
